SMILES strings stand for the structures. Converted amounts (≈) assume the structure as drawn.

The values below come from patent US10287275B2, “16-member triamilide derivatives and uses thereof” (VICTOR PHARMA CO., LTD. ZHENJIANG, priority 2015, dated 2019).

What all share (assay type): cell-based
The test system of test [1] is Escherichia coli 25922 (QC strain). The test can be described thus: Antibacterial MIC, agar-dilution or broth-dilution microtiter test. The note with it: Strain F: Escherichia coli 25922 (QC strain). The method, then: (§1) The MIC's in Table I and Table II were determined by standard agar-dilution assays or broth-dilution microtiter test.
For test [2], the system named is Staphylococcus aureus 29213 (QC strain). Described as above. The note with it: Strain H: Staphylococcus aureus 29213 (QC strain). The method, then: as §1
Another test concerns Pasteurella 8229. The test is described as above. To be noted: Strain D: Pasteurella 8229. The method, then:
as §1

Test [3] concerns Streptococcus pneumoniae 2349. The description is as above. The note with it: Strain L: Streptococcus pneumoniae 2349. The method, then:
as §1

The test system of test [4] is Klebsiella pneumoniae 3753. The test is described as above. To be noted: Strain J: Klebsiella pneumoniae 3753. The method, then:
as §1

The test system of test [5] is Streptococcus pneumoniae 49619 (QC strain). The test is described as above. To be noted: Strain M: Streptococcus pneumoniae 49619 (QC strain). The method, then:
as §1

Test [6] has as its system Staphylococcus aureus 5-1. Described as above. The note with it: 51; Strain G: Staphylococcus aureus 5-1. The method, then: as §1
Test [7] relates to Klebsiella pneumoniae 3699. The description is as above. To be noted: Strain K: Klebsiella pneumoniae 3699. The method, then:
as §1

In test [8] the test system is Actinobacillus pleuropneumoniae serotype 1. Described as above. To be noted: Strain A: Actinobacillus pleuropneumoniae serotype 1. The method, then: as §1
The test system of a further test is Escherichia coli IN-F6-7. Described as above. To be noted: INF67; Strain E: Escherichia coli IN-F6-7. The method, then: as §1
The next test has as its system salmonella LD4-8. The description is as above. The note with it: LD48; Strain I: salmonella LD4-8. The method, then: as §1
Test [9] deals with Actinobacillus pleuropneumoniae serotype 7. Described as above. The note with it: Strain B: Actinobacillus pleuropneumoniae serotype 7. The method, then: as §1
The next test has as its system Pasteurella 8217. Described as above. To be noted: Strain C: Pasteurella 8217. The method, then: as §1
The test system of a further test is M. hyorinis BTS-7. Briefly: Mycoplasma susceptibility testing (MIC). The method, then: as §1
In another test the test system is M. gallisepticum BG44T. Briefly: Mycoplasma susceptibility testing (MIC). The note with it: Mycoplasmoides gallisepticum. The method, then: as §1
The test system of another test is M. gallisepticum S6. Briefly: Mycoplasma susceptibility testing (MIC). To be noted: Mycoplasmoides gallisepticum. The method, then: as §1

One may read the MIC as the least concentration at which growth counts as inhibited. A low value points to inhibition by little substance. On to `CC[C@H]1OC(=O)C[C@@H](O)[C@H](C)[C@@H](O[C@@H]2O[C@H](C)[C@@H](O)[C@H](N(C)C)[C@H]2O)[C@@H](CCN2CCCCC2)C[C@@H](C)C(=O)/C=C/C(C)=C/[C@@H]1CN1CCCC1` [Compound 4d, (4R,5S,6S,7R,9R,11E,13E,15R,16R)-6-(((2R,3R,4S,5S,6R)-4-(dimethylamino)-3,5-dihydroxy-6-methyltetrahydro-2H-pyran-2-yl)oxy)-16-ethyl-4-hydroxy-5,9,13-trimethyl-7-(2-(piperidin-1-yl)ethyl)-15-(pyrrolidin-1-ylmethyl)oxacyclohexadeca-11,13-diene-2,10-dione], for which the minimal inhibitory concentration (MIC) is above 256 µg/mL in test [1]; 256 µg/mL (≈ 356 µM) in test [2]; 128 µg/mL (≈ 178 µM) with Pasteurella 8229; 64 µg/mL (≈ 88.9 µM) in test [3]; above 256 µg/mL in [4]; above 256 µg/mL in test [5]. Further, the MIC (in test [6]; in test [7]; in test [8]; with Escherichia coli IN-F6-7; in the test on salmonella LD4-8; in [9]) was above 256 µg/mL throughout. This molecule also yielded a minimal inhibitory concentration (MIC) in the test with Pasteurella 8217 of 256 µg/mL (≈ 356 µM).

Consider `CC[C@H]1OC(=O)C[C@@H](O)[C@H](C)[C@@H](O[C@@H]2O[C@H](C)[C@@H](O)[C@H](N(C)C)[C@H]2O)[C@@H](CCN2CCCCC2)C[C@@H](C)C(=O)/C=C/C(C)=C/[C@@H]1CN(CC)Cc1ccccc1` [Compound 4i, (4R,5S,6S,7R,9R,11E,13E,15R,16R)-15-((benzyl(ethyl)amino)methyl)-6-(((2R,3R,4S,5S,6R)-4-(dimethylamino)-3,5-dihydroxy-6-methyltetrahydro-2H-pyran-2-yl)oxy)-16-ethyl-4-hydroxy-5,9,13-trimethyl-7-(2-(piperidin-1-yl)ethyl)oxacyclohexadeca-11,13-diene-2,10-dione], for which the values for the minimum inhibitory concentration (MIC) with M. hyorinis BTS-7, with M. gallisepticum BG44T and in the test with M. gallisepticum S6 were 15.6 µg/mL (≈ 19.9 µM), below 0.12 µg/mL and below 0.12 µg/mL, respectively.

Take `CC[C@H]1OC(=O)C[C@@H](O)[C@H](C)[C@@H](O[C@@H]2O[C@H](C)[C@@H](O)[C@H](N(C)C)[C@H]2O)[C@@H](CCN2CCCCC2)C[C@@H](C)C(=O)/C=C/C(C)=C/[C@@H]1CN(Cc1ccccc1)C(C)C` [Compound 4j, (4R,5S,6S,7R,9R,11E,13E,15R,16R)-15-((benzyl(isopropyl)amino)methyl)-6-(((2R,3R,4S,5S,6R)-4-(dimethylamino)-3,5-dihydroxy-6-methyltetrahydro-2H-pyran-2-yl)oxy)-16-ethyl-4-hydroxy-5,9,13-trimethyl-7-(2-(piperidin-1-yl)ethyl)oxacyclohexadeca-11,13-diene-2,10-dione]: the MIC against M. hyorinis BTS-7 is 0.49 µg/mL (≈ 0.614 µM); against M. gallisepticum BG44T, below 0.12 µg/mL; against M. gallisepticum S6 it was below 0.12 µg/mL.

On to `CC[C@H]1OC(=O)C[C@@H](O)[C@H](C)[C@@H](O[C@@H]2O[C@H](C)[C@@H](O)[C@H](N(C)C)[C@H]2O)[C@@H](CCN2CC(C)CC(C)C2)C[C@@H](C)C(=O)/C=C/C(C)=C/[C@@H]1CN(Cc1ccccc1)C(C)C` (stereo partly drawn) [Compound 8a, (4R,5S,6S,7R,9R,11E,13E,15R,16R)-15-((benzyl(isopropyl)amino)methyl)-6-(((2R,3R,4S,5S,6R)-4-(dimethylamino)-3,5-dihydroxy-6-methyltetrahydro-2H-pyran-2-yl)oxy)-7-(2-(3,5-dimethylpiperidin-1-yl)ethyl)-16-ethyl-4-hydroxy-5,9,13-trimethyloxacyclohexadeca-11,13-diene-2,10-dione], for which the MIC against M. hyorinis BTS-7 is 3.91 µg/mL (≈ 4.73 µM); with M. gallisepticum BG44T it was below 0.12 µg/mL; with M. gallisepticum S6, below 0.12 µg/mL.

Regarding `CC[C@H]1OC(=O)C[C@@H](O)[C@H](C)[C@@H](O[C@@H]2O[C@H](C)[C@@H](O)[C@H](N(C)C)[C@H]2O)[C@@H](CCN2CC(C)CC(C)C2)C[C@@H](C)C(=O)/C=C/C(C)=C/[C@@H]1CN(C)Cc1cccnc1` (stereo partly drawn) [Compound 8b, (4R,5S,6S,7R,9R,11E,13E,15R,16R)-6-(((2R,3R,4S,5S,6R)-4-(dimethylamino)-3,5-dihydroxy-6-methyltetrahydro-2H-pyran-2-yl)oxy)-7-(2-(3,5-dimethylpiperidin-1-yl)ethyl)-16-ethyl-4-hydroxy-5,9,13-trimethyl-15-((methyl(pyridin-3-ylmethyl)amino)methyl)oxacyclohexadeca-11,13-diene-2,10-dione], the MIC amounted to 125 µg/mL (≈ 156 µM) in the test with M. hyorinis BTS-7, 0.98 µg/mL (≈ 1.23 µM) in the test on M. gallisepticum BG44T and 3.91 µg/mL (≈ 4.89 µM) with M. gallisepticum S6.

Regarding `CC[C@H]1OC(=O)C[C@@H](O)[C@H](C)[C@@H](O[C@@H]2O[C@H](C)[C@@H](O)[C@H](N(C)C)[C@H]2O)[C@@H](CCN2CC(C)CC(C)C2)C[C@@H](C)C(=O)/C=C/C(C)=C/[C@@H]1CN1Cc2ccccc2C1` (stereo partly drawn) [Compound 8c, (4R,5S,6S,7R,9R,11E,13E,15R,16R)-6-(((2R,3R,4S,5S,6R)-4-(dimethylamino)-3,5-dihydroxy-6-methyltetrahydro-2H-pyran-2-yl)oxy)-7-(2-(3,5-dimethylpiperidin-1-yl)ethyl)-16-ethyl-4-hydroxy-15-(isoindolin-2-ylmethyl)-5,9,13-trimethyloxacyclohexadeca-11,13-diene-2,10-dione], the minimum inhibitory concentration (MIC) against M. hyorinis BTS-7 was determined as 125 µg/mL (≈ 157 µM); with M. gallisepticum BG44T, 7.82 µg/mL (≈ 9.82 µM); against M. gallisepticum S6, 15.6 µg/mL (≈ 19.6 µM).

Regarding `CC[C@H]1OC(=O)C[C@@H](O)[C@H](C)[C@@H](O[C@@H]2O[C@H](C)[C@@H](O)[C@H](N(C)C)[C@H]2O)[C@@H](CCN2Cc3ccccc3C2)C[C@@H](C)C(=O)/C=C/C(C)=C/[C@@H]1CN(C)Cc1ccccc1` [Compound 12a, (4R,5S,6S,7R,9R,11E,13E,15R,16R)-15-((benzyl(methyl)amino)methyl)-6-(((2R,3R,4S,5S,6R)-4-(dimethylamino)-3,5-dihydroxy-6-methyltetrahydro-2H-pyran-2-yl)oxy)-16-ethyl-4-hydroxy-7-(2-(isoindolin-2-yl)ethyl)-5,9,13-trimethyloxacyclohexadeca-11,13-diene-2,10-dione], the minimum inhibitory concentration (MIC) was 15.6 µg/mL (≈ 19.4 µM) in the test on M. hyorinis BTS-7, below 0.12 µg/mL in the test with M. gallisepticum BG44T and below 0.12 µg/mL in the test on M. gallisepticum S6.

Turning to `CC[C@H]1OC(=O)C[C@@H](O)[C@H](C)[C@@H](O[C@@H]2O[C@H](C)[C@@H](O)[C@H](N(C)C)[C@H]2O)[C@@H](CCN2Cc3ccccc3C2)C[C@@H](C)C(=O)/C=C/C(C)=C/[C@@H]1CN1CCCCC1` [Compound 12b, (4R,5S,6S,7R,9R,11E,13E,15R,16R)-6-(((2R,3R,4S,5S,6R)-4-(dimethylamino)-3,5-dihydroxy-6-methyltetrahydro-2H-pyran-2-yl)oxy)-16-ethyl-4-hydroxy-7-(2-(isoindolin-2-yl)ethyl)-5,9,13-trimethyl-15-(piperidin-1-ylmethyl)oxacyclohexadeca-11,13-diene-2,10-dione], the minimum inhibitory concentration (MIC) was 3.91 µg/mL (≈ 5.09 µM) against M. hyorinis BTS-7, below 0.12 µg/mL against M. gallisepticum BG44T and below 0.12 µg/mL against M. gallisepticum S6.

In the case of `CC[C@H]1OC(=O)C[C@@H](O)[C@H](C)[C@@H](O[C@@H]2O[C@H](C)[C@@H](O)[C@H](N(C)C)[C@H]2O)[C@@H](CCN2Cc3ccccc3C2)C[C@@H](C)C(=O)/C=C/C(C)=C/[C@@H]1CN(CC)CC` [Compound 12c, (4R,5S,6S,7R,9R,11E,13E,15R,16R)-15-((diethylamino)methyl)-6-(((2R,3R,4S,5S,6R)-4-(dimethylamino)-3,5-dihydroxy-6-methyltetrahydro-2H-pyran-2-yl)oxy)-16-ethyl-4-hydroxy-7-(2-(isoindolin-2-yl)ethyl)-5,9,13-trimethyloxacyclohexadeca-11,13-diene-2,10-dione], the MIC was 7.82 µg/mL (≈ 10.3 µM) against M. hyorinis BTS-7, below 0.12 µg/mL against M. gallisepticum BG44T and below 0.12 µg/mL in the test with M. gallisepticum S6.

Consider `CC[C@H]1OC(=O)C[C@@H](O)[C@H](C)[C@@H](O[C@@H]2O[C@H](C)[C@@H](O)[C@H](N(C)C)[C@H]2O)[C@@H](CCN2Cc3ccccc3C2)C[C@@H](C)C(=O)/C=C/C(C)=C/[C@@H]1CN1CC(C)CC(C)C1` (stereo partly drawn) [Compound 12d, (4R,5S,6S,7R,9R,11E,13E,15R,16R)-6-(((2R,3R,4S,5S,6R)-4-(dimethylamino)-3,5-dihydroxy-6-methyltetrahydro-2H-pyran-2-yl)oxy)-15-((3,5-dimethylpiperidin-1-yl)methyl)-16-ethyl-4-hydroxy-7-(2-(isoindolin-2-yl)ethyl)-5,9,13-trimethyloxacyclohexadeca-11,13-diene-2,10-dione], for which the MIC against M. hyorinis BTS-7 was 3.91 µg/mL (≈ 4.91 µM); with M. gallisepticum BG44T, below 0.12 µg/mL; in the test with M. gallisepticum S6, below 0.12 µg/mL.
